target: T1, Metabotropic glutamate receptor 2 (Homo sapiens, UniProt Q14416); assay: Allosteric modulation of human mGluR2 expressed in CHO cells by [35S]GTPgammaS binding assay; type: functional, cell-based
Target sequence in this assay (Q14416 whole entry): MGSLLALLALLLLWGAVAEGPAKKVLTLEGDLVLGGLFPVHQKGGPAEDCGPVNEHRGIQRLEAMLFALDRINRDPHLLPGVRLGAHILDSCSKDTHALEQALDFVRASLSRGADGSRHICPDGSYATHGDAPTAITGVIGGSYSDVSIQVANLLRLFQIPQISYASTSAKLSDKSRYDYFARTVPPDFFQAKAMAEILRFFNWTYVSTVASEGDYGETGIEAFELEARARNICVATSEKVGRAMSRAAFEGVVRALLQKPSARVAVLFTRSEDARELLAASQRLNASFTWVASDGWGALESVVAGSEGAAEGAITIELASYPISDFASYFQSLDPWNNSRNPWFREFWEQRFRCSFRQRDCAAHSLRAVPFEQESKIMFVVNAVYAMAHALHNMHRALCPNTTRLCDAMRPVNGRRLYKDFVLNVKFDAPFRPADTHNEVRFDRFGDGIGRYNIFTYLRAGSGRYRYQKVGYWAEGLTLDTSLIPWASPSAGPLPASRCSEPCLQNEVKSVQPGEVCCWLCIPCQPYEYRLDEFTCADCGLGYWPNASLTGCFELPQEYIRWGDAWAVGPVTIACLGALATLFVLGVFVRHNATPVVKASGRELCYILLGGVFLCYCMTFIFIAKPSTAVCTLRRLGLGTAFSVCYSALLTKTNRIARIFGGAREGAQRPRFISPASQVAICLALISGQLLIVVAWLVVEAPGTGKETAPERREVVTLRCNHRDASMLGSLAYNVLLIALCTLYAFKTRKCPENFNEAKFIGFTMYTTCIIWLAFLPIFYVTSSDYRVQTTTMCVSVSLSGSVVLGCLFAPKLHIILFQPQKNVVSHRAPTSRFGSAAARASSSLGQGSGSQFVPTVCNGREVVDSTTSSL

SMILES | EC50
CCc1cnc2c(C#N)c(N3CCN(c4ncccn4)CC3)ccn12 | > 3.16 µM
CCCc1cnc2c(C#N)c(N3CCN(c4ncccn4)CC3)ccn12 | > 3.16 µM
N#Cc1c(N2CCN(c3ccccc3)CC2)ccn2c(-c3ccccc3)cnc12 | > 3.16 µM

target: T1, Metabotropic glutamate receptor 2; assay: Allosteric modulation of human mGluR2 expressed in CHO cells by [35S]GTPgammaS binding assay relative to glutamate; type: functional, cell-based
Target sequence in this assay (Q14416 19-872 limits assumed): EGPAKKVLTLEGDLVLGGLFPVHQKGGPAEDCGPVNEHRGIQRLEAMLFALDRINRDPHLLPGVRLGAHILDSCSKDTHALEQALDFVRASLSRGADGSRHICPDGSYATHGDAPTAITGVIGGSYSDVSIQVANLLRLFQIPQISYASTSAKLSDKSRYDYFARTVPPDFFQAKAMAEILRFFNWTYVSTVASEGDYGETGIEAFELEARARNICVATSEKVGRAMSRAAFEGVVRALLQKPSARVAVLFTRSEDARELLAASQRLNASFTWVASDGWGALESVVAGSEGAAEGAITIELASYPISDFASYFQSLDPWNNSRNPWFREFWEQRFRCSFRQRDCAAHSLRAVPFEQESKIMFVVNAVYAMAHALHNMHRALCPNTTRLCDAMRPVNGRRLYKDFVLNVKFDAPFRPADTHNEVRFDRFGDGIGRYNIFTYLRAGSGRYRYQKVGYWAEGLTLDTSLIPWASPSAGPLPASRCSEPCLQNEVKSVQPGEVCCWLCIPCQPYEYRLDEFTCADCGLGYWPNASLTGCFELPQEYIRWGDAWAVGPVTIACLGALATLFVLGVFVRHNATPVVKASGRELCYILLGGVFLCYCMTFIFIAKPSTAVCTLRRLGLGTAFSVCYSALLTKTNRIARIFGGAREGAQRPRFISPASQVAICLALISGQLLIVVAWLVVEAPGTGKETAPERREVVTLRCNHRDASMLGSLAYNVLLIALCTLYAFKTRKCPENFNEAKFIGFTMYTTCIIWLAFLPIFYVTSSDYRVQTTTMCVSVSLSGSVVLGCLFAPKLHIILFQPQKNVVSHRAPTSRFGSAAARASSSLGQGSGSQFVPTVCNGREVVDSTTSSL

Emax | SMILES
231% | N#Cc1c(N2CCN(c3ncccn3)CC2)ccn2c(CC(F)(F)F)cnc12
229% | N#Cc1c(N2CCN(c3ncccn3)CC2)ccn2c(CCC3CC3)cnc12
214% | CCc1cnc2c(C#N)c(N3CCN(c4ncccn4)CC3)ccn12
128% | Cc1cc(C)nc(N2CCN(c3ccn4c(CC(F)(F)F)cnc4c3C#N)CC2)n1
248% | CCCc1cnc2c(C#N)c(N3CCN(c4ncccn4)CC3)ccn12

Second part, the compound before the results:

SMILES | Emax
Cc1c(OCc2cccc(-c3ccc(C(=O)O)cc3)c2)cc2c(c1C)C(=O)C(C1CCCC1)C2 (centres undefined) | 213%
CCCCn1ccc(N2CCN(c3nc(C)cc(C)n3)CC2)c(C#N)c1=O | 235%
CCCc1cnc2c(C#N)c(N3CCN(c4nc(C)cc(C)n4)CC3)ccn12 | 179%
N#Cc1c(-c2ccc(OCc3ccccc3)cc2)ccn2c(CC(F)(F)F)cnc12 | 222%
N#Cc1c(-c2ccc(NC3CC3)c(Cl)c2)ccn2c(CC(F)(F)F)cnc12 | 187%
CCc1cnc2c(C#N)c(N3CCN(c4nc(C)cc(C)n4)CC3)ccn12 | 142%
N#Cc1c(-c2ccc(Oc3ccccc3)cc2)ccn2c(CC(F)(F)F)cnc12 | 200%
CCCc1cnc2c(C#N)c(N3CCN(c4ccccc4)CC3)ccn12 | 241%
N#Cc1c(-c2ccc(N3CCCCC3)cc2)ccn2c(CC(F)(F)F)cnc12 | 123%
CC(C)(C)c1ccc(-c2ccn3c(CC(F)(F)F)cnc3c2C#N)cc1 | 272%
N#Cc1c(N2CCN(c3ccccc3)CC2)ccn2c(-c3ccccc3)cnc12 | 73%
